Reference: patent US20250197377A1, “NOVEL PHARMACEUTICAL SALTS AND POLYMORPHIC FORMS OF AN ERBB AND BTK INHIBITOR” (DIZAL (JIANGSU) PHARMACEUTICAL CO., LTD., priority 2021, published 2025)
In brackets after ≈: the same amount, converted by molar mass. Several values for one entry are separate records, joined by “and”; a condition that tells them apart may be missing. Equal values may be shown once.

Columns and labels:
EGFR Wildtype = molecular target: T1, EGFR Wildtype (Homo sapiens, UniProt P00533); assay: In vitro cell based assay, PD IC50, A431
T1 construct: Form A and B in vitro cell based assay; endogenous in cells; host or cells: A431
T1 sequence (P00533 25-1210): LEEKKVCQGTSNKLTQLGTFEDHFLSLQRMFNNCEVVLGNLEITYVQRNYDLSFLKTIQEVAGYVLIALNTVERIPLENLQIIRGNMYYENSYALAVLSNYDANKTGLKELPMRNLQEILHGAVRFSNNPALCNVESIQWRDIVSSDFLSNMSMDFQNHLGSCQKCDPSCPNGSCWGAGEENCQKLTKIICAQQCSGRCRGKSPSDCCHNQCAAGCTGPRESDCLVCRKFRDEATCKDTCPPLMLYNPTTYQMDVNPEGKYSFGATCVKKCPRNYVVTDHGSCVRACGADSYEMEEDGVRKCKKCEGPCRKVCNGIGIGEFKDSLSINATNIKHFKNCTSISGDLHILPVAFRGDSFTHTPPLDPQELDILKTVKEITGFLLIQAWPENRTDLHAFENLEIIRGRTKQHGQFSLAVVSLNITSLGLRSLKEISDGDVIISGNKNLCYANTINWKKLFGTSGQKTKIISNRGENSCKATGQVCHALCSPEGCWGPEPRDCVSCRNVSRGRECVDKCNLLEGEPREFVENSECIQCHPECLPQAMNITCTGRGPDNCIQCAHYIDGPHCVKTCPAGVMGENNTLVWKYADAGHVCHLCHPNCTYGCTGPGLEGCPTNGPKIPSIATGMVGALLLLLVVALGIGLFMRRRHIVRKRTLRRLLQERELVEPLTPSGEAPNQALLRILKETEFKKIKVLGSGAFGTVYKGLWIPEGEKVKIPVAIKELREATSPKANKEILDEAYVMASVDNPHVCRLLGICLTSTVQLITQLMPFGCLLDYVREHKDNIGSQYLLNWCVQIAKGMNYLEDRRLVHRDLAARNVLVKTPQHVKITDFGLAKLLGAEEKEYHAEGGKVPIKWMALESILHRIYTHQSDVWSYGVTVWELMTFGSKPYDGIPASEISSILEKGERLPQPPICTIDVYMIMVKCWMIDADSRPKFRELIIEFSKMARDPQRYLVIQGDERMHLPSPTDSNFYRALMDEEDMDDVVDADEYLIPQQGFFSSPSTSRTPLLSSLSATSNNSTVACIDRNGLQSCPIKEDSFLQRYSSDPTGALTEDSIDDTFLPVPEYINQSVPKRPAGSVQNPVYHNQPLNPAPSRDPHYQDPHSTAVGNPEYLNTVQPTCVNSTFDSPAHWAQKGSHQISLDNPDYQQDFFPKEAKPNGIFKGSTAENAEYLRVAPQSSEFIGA

[1] = Water activity study of Form A and Form B (slurry, XRPD); type: physicochemical; settings: 24~27° C. (before dry)
Method: To study the effects of water on the stability of Form A and Form B, slurry experiments in the systems with different water activity were carried out. Form A or Form B was suspended separately in different water activity systems (Table 4). […] Residual solids were filtered and then dried in the vacuum oven at 45° C. for 8-24 hours. Dry solids were characterized by XRPD.

Ba/F3_NPH = assay: In vitro cell based assay, anti-proliferation GI50, Ba/F3_NPH; settings: EGFR H773_V774insNPH
HER2 A775_G776insYVMA = molecular target: T2, HER2 A775_G776insYVMA (Homo sapiens, UniProt P04626, INS775YVMA); assay: In vitro cell based assay, PD IC50, 3T3_YVMA
T2 construct: expressed in transfected cells; host or cells: 3T3 (3T3_YVMA)
T2 sequence (P04626 with tags, fused parts or gaps INS775YVMA): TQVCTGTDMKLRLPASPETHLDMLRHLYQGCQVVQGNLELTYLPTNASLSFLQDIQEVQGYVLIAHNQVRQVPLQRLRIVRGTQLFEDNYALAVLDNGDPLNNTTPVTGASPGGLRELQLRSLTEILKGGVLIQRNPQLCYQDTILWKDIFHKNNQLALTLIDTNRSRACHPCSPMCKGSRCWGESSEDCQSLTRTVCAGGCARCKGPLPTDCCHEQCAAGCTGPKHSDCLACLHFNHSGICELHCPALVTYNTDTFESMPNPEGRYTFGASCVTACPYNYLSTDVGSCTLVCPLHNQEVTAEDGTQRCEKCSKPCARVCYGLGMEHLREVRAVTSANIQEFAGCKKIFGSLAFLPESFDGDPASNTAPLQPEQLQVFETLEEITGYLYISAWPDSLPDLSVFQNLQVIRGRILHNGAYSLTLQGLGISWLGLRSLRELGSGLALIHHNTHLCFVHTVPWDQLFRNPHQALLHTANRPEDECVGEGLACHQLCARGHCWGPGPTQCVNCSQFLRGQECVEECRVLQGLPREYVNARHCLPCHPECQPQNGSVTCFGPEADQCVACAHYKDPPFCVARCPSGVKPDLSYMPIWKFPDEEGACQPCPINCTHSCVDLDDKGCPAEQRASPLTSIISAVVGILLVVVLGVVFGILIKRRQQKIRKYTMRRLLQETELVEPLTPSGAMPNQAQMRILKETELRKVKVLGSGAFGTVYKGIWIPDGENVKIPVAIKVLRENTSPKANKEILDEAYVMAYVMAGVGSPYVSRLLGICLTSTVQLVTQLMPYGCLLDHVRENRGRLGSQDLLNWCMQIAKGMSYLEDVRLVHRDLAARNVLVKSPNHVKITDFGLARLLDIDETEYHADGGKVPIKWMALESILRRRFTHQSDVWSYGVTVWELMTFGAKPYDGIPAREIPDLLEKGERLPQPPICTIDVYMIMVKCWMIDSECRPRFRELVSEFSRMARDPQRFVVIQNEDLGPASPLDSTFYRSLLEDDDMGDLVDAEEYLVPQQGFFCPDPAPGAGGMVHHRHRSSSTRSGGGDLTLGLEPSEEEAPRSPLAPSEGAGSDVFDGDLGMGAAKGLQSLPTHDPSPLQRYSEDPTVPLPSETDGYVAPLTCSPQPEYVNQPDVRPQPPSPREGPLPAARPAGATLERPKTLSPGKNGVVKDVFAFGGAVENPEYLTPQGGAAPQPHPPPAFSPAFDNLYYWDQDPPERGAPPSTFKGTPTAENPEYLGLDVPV

[2] = Form A and Form B inter-conversion study (competitive slurry, XRPD); type: physicochemical
Method: Competitive slurry experiments were conducted to evaluate the relative stability of Form A and Form B. Inter-conversion study was performed at room temperature and 50° C. using single and binary solvents listed in the Table 1 below. About 80 mg (100 mg for 50° C.) of Form A and Form B (1:1, w/w) was weighed into sample vials (8 mL) and then 3 mL (2 mL for 50° C.) of solvents were added to each vial. The obtained suspensions were kept stirring for 7 days at room temperature and 50° C., then filtered at specified time. The wet and dried solids were analyzed by XRPD (dried in vacuum oven at 45° C.).
Form B was dominant in tested solvent systems with water activity below 0.15 at room temperature (24˜27° C.). […] Pure Form A and Form B were stable during drying process (50° C., vacuum) for at least 2 days.

[3] = Dynamic moisture sorption analysis (DVS); type: physicochemical
Method: DVS was determined using DVS Advantage-1 or Intrinsic (SMS, UK). The sample was tested at a targeted RH of 10 to 90% full cycle in step mode. The analysis was performed in 10% RH increments. Equilibrium:60 min RH (%) measurement points: First cycle: 0, 10, 20, 30, 40, 50, 60, 70, 80, 90. Second cycle: 90, 80, 70, 60, 50, 40, 30, 20, 10, 0.

EGFR H773_V774insNPH = molecular target: T3, EGFR H773_V774insNPH (Homo sapiens, UniProt P00533, INS773NPH); assay: In vitro cell based assay, PD IC50, Ba/F3_NPH
T3 construct: expressed in transfected cells; host or cells: Ba/F3 (Ba/F3_NPH)

EGFR L858R/T790M = molecular target: T4, EGFR L858R/T790M (Homo sapiens, UniProt P00533, L858R/T790M); assay: In vitro cell based assay, PD IC50, NCI-H1975
T4 construct: Form A and B in vitro cell based assay; endogenous in cells; host or cells: NCI-H1975
T4 sequence (P00533 25-1210 T790M/L858R): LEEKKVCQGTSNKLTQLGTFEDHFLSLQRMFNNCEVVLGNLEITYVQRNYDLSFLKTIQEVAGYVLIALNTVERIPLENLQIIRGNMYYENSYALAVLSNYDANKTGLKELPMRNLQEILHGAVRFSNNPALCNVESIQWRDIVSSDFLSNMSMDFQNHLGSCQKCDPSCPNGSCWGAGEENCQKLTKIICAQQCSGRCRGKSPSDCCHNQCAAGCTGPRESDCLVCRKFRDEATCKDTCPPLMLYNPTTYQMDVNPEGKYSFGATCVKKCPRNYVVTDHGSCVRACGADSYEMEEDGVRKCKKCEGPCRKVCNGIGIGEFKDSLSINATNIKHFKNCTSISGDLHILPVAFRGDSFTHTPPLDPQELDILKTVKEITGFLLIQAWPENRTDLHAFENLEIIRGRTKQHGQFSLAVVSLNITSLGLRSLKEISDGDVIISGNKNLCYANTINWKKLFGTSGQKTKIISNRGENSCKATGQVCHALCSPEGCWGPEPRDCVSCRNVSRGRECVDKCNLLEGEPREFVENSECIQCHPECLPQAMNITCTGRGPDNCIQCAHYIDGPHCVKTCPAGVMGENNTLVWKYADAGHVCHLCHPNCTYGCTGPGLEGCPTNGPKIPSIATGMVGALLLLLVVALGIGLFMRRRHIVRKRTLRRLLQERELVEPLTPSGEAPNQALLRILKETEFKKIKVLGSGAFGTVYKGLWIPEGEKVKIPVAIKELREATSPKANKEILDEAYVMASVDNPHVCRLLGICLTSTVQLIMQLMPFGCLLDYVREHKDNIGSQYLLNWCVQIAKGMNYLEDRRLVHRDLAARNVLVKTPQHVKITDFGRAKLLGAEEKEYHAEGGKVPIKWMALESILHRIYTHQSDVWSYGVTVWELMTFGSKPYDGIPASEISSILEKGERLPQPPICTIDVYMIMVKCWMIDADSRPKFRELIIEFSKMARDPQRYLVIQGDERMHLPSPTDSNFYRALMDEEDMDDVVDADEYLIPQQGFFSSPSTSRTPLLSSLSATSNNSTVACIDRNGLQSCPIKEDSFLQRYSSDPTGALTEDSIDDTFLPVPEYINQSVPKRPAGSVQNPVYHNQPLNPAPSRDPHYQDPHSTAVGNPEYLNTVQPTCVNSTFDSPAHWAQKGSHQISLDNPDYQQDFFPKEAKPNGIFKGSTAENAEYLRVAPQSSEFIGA

[4] = Milling study of Form B (grinding and jet milling); type: physicochemical
Method: Grinding and jet milling were carried out. About 10 mg Form B was added into mortar and grinded by pestle for 1 min and 2 min. Jet milling of Form B in 500 mg scale was performed. Samples before and after grinding and milling were analyzed by XRPD. • Instrument: Jet mill (Equipment number: PPD-OAJ-1) • Feeding speed: Manual • Feeding pressure: 0.3˜0.6 MPa • Milling One Pressure: 0.4˜0.8 MPa • Milling Two Pressure: 0.4˜0.8 MPa
Grinding and jet milling were carried out to test physical stability of Form B in the milling process. As shown in XRPD results of obtained solids after grinding (FIG. 25), jet milling (FIG. 24), and DSC profile after jet milling (FIG. 26), the crystallinity decreased after grinding, but the crystal form of Form B was unchanged after milling and grinding.

EGFR 19Del = molecular target: T5, EGFR 19Del (Homo sapiens, UniProt P00533, DEL746-750); assay: In vitro cell based assay, PD IC50, PC-9
T5 construct: Form A and B in vitro cell based assay; endogenous in cells; host or cells: PC-9
T5 sequence (P00533 with tags, fused parts or gaps DEL746-750): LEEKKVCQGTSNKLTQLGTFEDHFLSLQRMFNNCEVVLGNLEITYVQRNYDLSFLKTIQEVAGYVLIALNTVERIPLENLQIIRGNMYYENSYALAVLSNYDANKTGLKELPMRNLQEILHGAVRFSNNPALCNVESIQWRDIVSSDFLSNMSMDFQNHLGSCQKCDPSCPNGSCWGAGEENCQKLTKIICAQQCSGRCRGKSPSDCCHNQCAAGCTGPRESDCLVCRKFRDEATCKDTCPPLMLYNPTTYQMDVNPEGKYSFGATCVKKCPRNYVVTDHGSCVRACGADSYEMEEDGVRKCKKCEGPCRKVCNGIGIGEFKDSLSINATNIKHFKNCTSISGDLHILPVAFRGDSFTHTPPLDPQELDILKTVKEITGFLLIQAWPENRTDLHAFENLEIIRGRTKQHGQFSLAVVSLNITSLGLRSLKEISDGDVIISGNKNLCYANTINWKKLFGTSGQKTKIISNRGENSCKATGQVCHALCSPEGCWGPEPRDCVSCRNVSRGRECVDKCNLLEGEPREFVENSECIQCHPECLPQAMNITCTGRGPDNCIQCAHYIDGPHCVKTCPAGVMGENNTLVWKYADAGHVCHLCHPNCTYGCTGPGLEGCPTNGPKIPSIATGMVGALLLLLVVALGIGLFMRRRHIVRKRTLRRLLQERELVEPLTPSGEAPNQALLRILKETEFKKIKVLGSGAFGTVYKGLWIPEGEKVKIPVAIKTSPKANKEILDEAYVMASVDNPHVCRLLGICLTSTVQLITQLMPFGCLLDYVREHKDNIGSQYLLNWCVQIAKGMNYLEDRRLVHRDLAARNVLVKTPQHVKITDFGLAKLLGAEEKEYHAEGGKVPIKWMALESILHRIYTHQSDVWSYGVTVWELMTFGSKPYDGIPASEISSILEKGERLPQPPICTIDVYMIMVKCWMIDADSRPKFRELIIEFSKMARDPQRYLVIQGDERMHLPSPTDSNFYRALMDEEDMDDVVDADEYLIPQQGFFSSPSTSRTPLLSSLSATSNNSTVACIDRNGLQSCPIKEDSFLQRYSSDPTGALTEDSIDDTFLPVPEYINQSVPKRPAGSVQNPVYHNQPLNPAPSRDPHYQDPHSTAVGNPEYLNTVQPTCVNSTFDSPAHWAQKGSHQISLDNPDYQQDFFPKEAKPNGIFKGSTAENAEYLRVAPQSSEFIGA

[5] = Solubility in bio-relevant media; type: physicochemical; settings: for pH value at 24 h: solubility sample at 24 h
PC-9 = assay: In vitro cell based assay, anti-proliferation GI50, PC-9; settings: EGFR 19Del
[6] = Solubility in organic solvents and water; type: physicochemical; settings: r.t.
[7] = PK study of Form A and Form B in Dog; type: in vivo; settings: 10 mg/kg
[8] = Stability in storage for Form B (XRPD, DSC); type: physicochemical; settings: stored at 2-8° C. for at least 20 d
NCI-H1975 = assay: In vitro cell based assay, anti-proliferation GI50, NCI-H1975; settings: EGFR L858R/T790M
A431 = assay: In vitro cell based assay, anti-proliferation GI50, A431; settings: EGFR Wildtype
3T3_YVMA = assay: In vitro cell based assay, anti-proliferation GI50, 3T3_YVMA; settings: HER2 A775_G776insYVMA
[9] = PK study of Form A and Form B in Rat; type: in vivo

IC50 (EGFR Wildtype): 54.1 nM
XRPD results of slurry in different water activity solvent ([1]; 0% water/acetone, water activity 0, 1 d): Form B
XRPD results of slurry in different water activity solvent ([1]; 0% water/acetone, water activity 0, 3 d): Form B
XRPD results of slurry in different water activity solvent ([1]; 0% water/acetone, water activity 0, 7 d): Form B
XRPD results of slurry in different water activity solvent ([1]; 3% water/acetone, water activity 0.312, 3 d): Form B
XRPD results of slurry in different water activity solvent ([1]; 3% water/acetone, water activity 0.312, 7 d): Form B
XRPD results of slurry in different water activity solvent ([1]; 30% water/acetone, water activity 0.747, 1 d): Form B
XRPD results of slurry in different water activity solvent ([1]; 30% water/acetone, water activity 0.747, 3 d): Form B
XRPD results of slurry in different water activity solvent ([1]; 30% water/acetone, water activity 0.747, 7 d): Form B
XRPD results of slurry in different water activity solvent ([1]; water, 7 d): Form B
GI50 (Ba/F3_NPH): 66.3 nM
IC50 (HER2 A775_G776insYVMA): 3.26 nM
Stability of pure form during drying process ([2]; 50° C., vacuum, at least 2 days): stable
Relative stability of Form A and Form B in competitive slurry ([2]; 50° C., all the tested solvent systems except pure water): more stable than Form A
Relative stability of Form A and Form B in competitive slurry ([2]; tested solvent systems with water activity below 0.15, room temperature (24~27° C.)): dominant
DVS (ΔW %, 80% RH) [3]: 0.04%
IC50 (EGFR H773_V774insNPH): 35.2 nM
IC50 (EGFR L858R/T790M): 2.07 nM
Crystallinity after grinding (XRPD) ([4]; grinding): decreased
Crystal form after milling and grinding (XRPD, DSC) ([4]; grinding 1 min and 2 min, jet milling): unchanged
IC50 (EGFR 19Del): 2.29 nM
solubility at 0.5 h ([5]; FaSSIF): 150 µg/mL (≈ 257 µM)
solubility at 2 h ([5]; FaSSIF, 2 h): 160 µg/mL (≈ 274 µM)
solubility at 24 h ([5]; FaSSIF, 24 h): 240 µg/mL (≈ 411 µM)
pH value at 24 h ([5]; FaSSIF): 6.43
solubility at 0.5 h ([5]; FeSSIF): 3180 µg/mL (≈ 5440 µM)
Solubility ([5]; FeSSIF, 2 h): 2290 µg/mL (≈ 3920 µM)
solubility at 24 h ([5]; FeSSIF, 24 h): 11200 µg/mL (≈ 19200 µM)
pH value at 24 h ([5]; FeSSIF): 5.50
solubility at 0.5 h ([5]; SGF, simulated gastric fluid): 23500 µg/mL (≈ 40300 µM)
solubility at 2 h ([5]; SGF, simulated gastric fluid, 2 h): 24200 µg/mL (≈ 41400 µM)
solubility at 24 h ([5]; SGF, simulated gastric fluid, 24 h): 25800 µg/mL (≈ 44100 µM)
pH value at 24 h ([5]; SGF): 5.15
solubility at 0.5 h ([5]; SIF, fassgf or other biorelevant): 18 µg/mL (≈ 30.8 µM)
solubility at 2 h ([5]; SIF, fassgf or other biorelevant, 2 h): 25 µg/mL (≈ 42.8 µM)
Solubility ([5]; SIF, 24 h): 520 µg/mL (≈ 890 µM)
pH value at 24 h ([5]; SIF): 6.67
GI50 (PC-9): 4.23 nM
Solubility ([6]; Acetone): S < 5.88 mg/ml
Solubility ([6]; Acetonitrile): S < 0.97 mg/ml
Solubility ([6]; Ethyl acetate): S < 1.06 mg/ml
Solubility ([6]; Isopropanol): S ~ 4.677 mg/ml
Solubility ([6]; MTBE): S < 1.57 mg/ml
Solubility ([6]; MeOH): 24.00 < S mg/ml
Solubility ([6]; THF): 12.70 < S mg/ml
Solubility ([6]; water): S < 2.73 mg/ml
Form change after storage (XRPD, DSC) [8]: no form change observed
GI50 (NCI-H1975): 1.45 nM
GI50 (A431): 45.9 nM
Mean AUC0~48 ([9]; 25 mg/kg): 2678 ng·h/mL
Mean Cmax ([9]; 25 mg/kg): 299 ng/mL
Mean t1/2 ([9]; 25 mg/kg): 4.1 h
Median Tmax ([9]; 25 mg/kg): 8.0 h
Mean AUC0~48 ([9]; 75 mg/kg): 8433 ng·h/mL
Mean Cmax ([9]; 75 mg/kg): 672 ng/mL
Mean t1/2 ([9]; 75 mg/kg): 5.8 h
Median Tmax ([9]; 75 mg/kg): 4.0 h
SMILES: C=CC(=O)Nc1cc(Nc2nccc(Nc3cc(Cl)c(F)cc3C(C)(C)O)n2)c(OC)cc1N1CC[C@@H](N(C)C)C1 [Form B, (R)-N-(5-((4-((5-chloro-4-fluoro-2-(2-hydroxypropan-2-yl)phenyl)amino)pyrimidin-2-yl)amino)-2-(3-(dimethylamino)pyrrolidin-1-yl)-4-methoxyphenyl)acrylamide]
AUC0-24 h ([7]; Female (individual animals)): 3.14 hr*μM/(mg/kg) and 3.75 hr*μM/(mg/kg)
AUC0-24 h ([7]; Male (individual animals)): 2.88 hr*μM/(mg/kg) and 5.29 hr*μM/(mg/kg)
GI50 (3T3_YVMA): 44.5 nM
